Reference: patent US20230404998A1, “Combination Therapies for Treating Cancer” (ASCENTAGE PHARMA (SUZHOU) CO., LTD., priority 2020, published 2023)

Tested on: RAG
Experiment: Antiproliferative activity in RCC line RAG
Format: cell-based
Conditions: Mus musculus; murine RCC line RAG

Compound: Cc1ccc(C(=O)Nc2ccc(CN3CCN(C)CC3)c(C(F)(F)F)c2)cc1C#Cc1cnc2[nH]ncc2c1 [HQP1351, 3-(2-(1H-pyrazolo[3,4-b]pyridin-5-yl)ethynyl)-4-methyl-N-(4-((4-methylpiperazin-1-yl)methyl)-3-(trifluoromethyl)phenyl)-benzamide]
- IC50: 53 nM
